In a melting point compilation (Tetko et al.; mined from patent text by program, amines drawn as free bases though some values may be those of a salt) one finds melting point data, which are given here for 35 molecules.

What is called melting point is the temperature, or range, at which the solid turns liquid.

Regarding `C[C@H]([C@](O)(Cn1cncn1)c1ccc(F)cc1F)S(=O)(=O)N1CCN(c2ccc(-n3cnn(CC(F)(F)F)c3=O)cc2)CC1`, the melting point lay in the range of 237 to 239 °C.
On to `O=C1CCC(C(=O)O)(c2ccc(Cl)cc2)CC1`, for which the melting point was in the range of 162 to 164 °C.
`CS(=O)(=O)c1ccc(-c2cnn(CC(F)(F)F)c(=O)c2OCC2CC2)cc1` came in with a melting point of 133 to 135 °C.
Next, `Cn1c2ccccc2c(=O)n2nc(C(=O)O)cc12`: 265 °C; `Nc1ncnc2c1c(-c1ccc(Oc3cccc(CN4CCOCC4)c3)cc1)cn2C1CCOC1` (stereo not given): 83 to 85 °C; `O=C(C=Cc1ccc(COC2OC(CO)C(O)C(O)C2O)o1)c1ccccc1` (stereo not given): 127 °C.
For the molecule `CCOC(=O)NNC=Nc1nc(-c2ccc(C3CCCCC3)cc2)cs1`, the melting point lay within 188 to 189 °C.
For the molecule `Cc1ccc(-c2ccc(C(=O)Nc3ccc4cc(CN5CCCC5)cnc4c3C)cc2)cc1`, the melting point fell in the range of 177 to 179 °C.
As to `Cc1noc(=O)c2ccc(NC(=O)C(=O)CC3(c4cccc(C(F)(F)F)c4F)CC3)cc12`, the melting point lay in the range of 117 to 118 °C.
To `CCOc1ccc2c(c1)c(C[C@H](C)N)c1n2CCC1` belongs 101 to 102 °C; to `Cc1c(C(=O)O)nc2c(=O)[nH]c3cc(C(F)(F)F)c(-n4cccc4)cc3n12`, 265 to 270 °C; to `CCOC(=S)c1cccc2nnsc12`, 114 to 115 °C.
With `Cc1cc(C(=O)NCc2cccc3c2C(=O)N(C2CCC(=O)NC2=O)C3=O)nn1C` (stereo not given), the melting point was in the range of 213 to 215 °C.
Consider `Cc1nc2ccc3c(c2o1)OC(CO)CO3` (stereo not given), for which the melting point turned out to be 120 °C.
The molecule `COC(=O)c1cccc(NC(=O)c2ccc(OC)c(N)c2)c1` displayed a melting point of 160 to 162 °C.
Take `CC(=O)C(=CNc1ccc(C2=NNC(=O)CC2)cc1)C(C)=O`: the melting point lay in the range of 218 to 222 °C.
In the case of `COc1ccc(C(=O)O)cc1OC1CC=CC1`, the melting point fell in the range of 171 to 173 °C.
As to `O=C(O)CCc1cnoc1-c1ccc(F)cc1F`, the melting point lay within 125 to 126 °C.
Take `COC1=CC=C2C3Cc4ccc(O)c5c4C2(CCN3C)C1O5` (stereo not given): the melting point is 114 to 116 °C.
Consider `COc1ccc2nc(SCc3nccc(OCC(F)(F)F)c3OC)[nH]c2c1`, for which the melting point was 149 to 150 °C.
Regarding `C1=CCC2=c3cnc4ccccc4c3=NC2=C1`, the melting point fell in the range of 146 to 148 °C.
In the case of `Brc1cccc2nonc12`, the melting point fell in the range of 92 to 94 °C.
`O=C(c1ccc(Cl)cc1)[C@H]1C[C@H]1C(=O)N1CCC(N2Cc3ccccc3NC2=O)CC1` (relative stereo) registered a melting point of 272 to 273 °C.
As for `NCCCCC(=O)N1CCC(c2[nH]nc3c2C(=O)c2c(NC(=O)NN4CCOCC4)cccc2-3)CC1`, the melting point lay in the range of 103 to 105 °C.
Take `CCOC(=O)c1cnc2c(c(C)nc3cc(C)nn32)c1O`: the melting point was in the range of 207 to 208 °C.
The molecule `COc1ccc(C2(c3ccc(OC(F)F)cc3)N=C(N)N(C)C2=O)cc1C#N` (stereo not given) had a melting point of 104 to 105 °C.
Next, `CC1COc2c(N3CCC(n4cncn4)C3)c(F)cc3c(=O)c(C(=O)O)cn1c23` (single isomer, unassigned; (-)): 229 to 231 °C.
`CC1C[C@@H]2NC[C@@H](NC(=O)OC(C)(C)C)[C@@H]2O1` (relative stereo) yielded a melting point of 69 to 72 °C.
For the molecule `COc1cccc2c1OC(SC)C2=O` (stereo not given), the melting point was in the range of 103 to 105 °C.
Turning to `CCO/N=C1\CCc2ccccc2C1=Cc1ccc(S(C)(=O)=O)cc1`, the melting point lay in the range of 151 to 152 °C.
`COC(=O)C(Oc1ccc(C(C)(C)C)cc1)c1ccc(Sc2ccc(Cl)cc2)cc1` (stereo not given): the melting point lay in the range of 106 to 108 °C.
Regarding `Cc1cccc(-n2nc(C)c(C)c2-c2cc3cnccc3s2)n1`, the melting point lay in the range of 108 to 109 °C.
The molecule `O=C(OCC(Cl)(Cl)Cl)ON1C(=O)CCC1=O` had a melting point of 98 to 101 °C.
For `N#Cc1ccc(N(Cc2ccc(O)cc2)n2ccnc2)cc1`, the melting point stood at 180 °C.
Molecule `CCOC(=O)c1cnc2cn[nH]c2c1Nc1ccccc1` had a melting point of 164 to 165 °C.
